From patent US11433055B2, “Chromane monobactam compounds for the treatment of bacterial infections” (priority 2017, dated 2022)
Where two headings read alike, the source gives them in different places.

Legend:
Type in all cases: cell-based
Settings in all cases: lowest concentration inhibiting 95% of bacterial growth, in the presence of β lactamase inhibitor (BLi, Relebactam), 22 hours, 35±2° C., OD600
[1] = test system: Escherichia coli expressing NDM-1 (CLB30016)
Method: (§1) Antibiotic Activity: Determination of Growth Inhibitory Concentration
(§2) The concentrations of compounds required to inhibit the growth of various strains of bacteria were determined in an assay that assessed bacterial growth by measuring optical density at 600 nm (OD600). The bacterial strains tested included the clinical strains Escherichia coli expressing NDM-1 (CLB30016), Klebsiella pneumoniae expressing KPC-1 (CL6569), Acinetobacter baumannii expressing TEM-1, AmpC, and Oxa-24/40 (CL6188) and Pseudomonas aeruginosa expressing AmpC (CL5701). All compounds were tested in the presence of a β lactamase inhibitor (BLi, Relebactam) in 384-well microplates. The clinical strains were stored as frozen single use stocks, thawed and diluted into 1.1× cation-adjusted Mueller-Hinton II broth to achieve approximately 2×10^5 CFU/mL. Test compounds were dissolved in DMSO and diluted 1:50 in the assay, resulting in a final concentration range of 100 μM to 0.098 μM. On the day of the assay, 1 μL of test compound was added to the plate followed by 4 μL of 50 μg/mL BLi in MOPS buffer and 45 μL of diluted bacteria. Plates were centrifuged at 1000 rpm for 30 seconds, shaken at approximately 800 rpm for 1 minute, and incubated at 35±2° C. for 22 hours. The concentration of BLi used in the assay was […]. At the end of the incubation, absorbance at 600 nm was determined using a spectrophotometer. Inhibition was quantitated by identifying the lowest concentration of test compound that was required to inhibit 95% of the growth of the bacteria. The results for Examples 1-39 are reported in Table I, expressed as the concentration of compound that inhibited 95% of bacterial growth (Minimum Inhibitory Threshold Concentration; MITC95).

[2] = test system: Pseudomonas aeruginosa expressing AmpC (CL5701)
Method: as §1, §2

[3] = test system: Acinetobacter baumannii expressing TEM-1, AmpC, and Oxa-24/40 (CL6188)
Method: as §1, §2

[4] = test system: Klebsiella pneumoniae expressing KPC-1 (CL6569)
Method: as §1, §2

Compound	EC_CLB30016 MITC95 [1]	PA_CL5701 MITC95 [2]	AB_CL6188 MITC95 [3]	KP_CL6569 MITC95 [4]	EC_CLB30016 MITC95 ([1]; sulfate formate)	PA_CL5701 MITC95 ([2]; sulfate formate)	AB_CL6188 MITC95 ([3]; sulfate formate)	KP_CL6569 MITC95 ([4]; sulfate formate)
C[n+]1cc(-c2ccc3c(c2)CC[C@H]([C@](C)(O/N=C(\C(=O)N[C@@H]2C(=O)N(OS(=O)(=O)[O-])C2(C)C)c2csc(N)n2)C(=O)O)O3)ccc1CC(CN)CN.O=CO [Example 16, (3S)-3-((Z)-2-(((1S)-1-((2R)-6-(6-(3-amino-2-(ammonio-methyl)propyl)-1-methylpyridin-1-ium-3-yl)chroman-2-yl)-1-carboxyethoxy)imino)-2-(2-aminothiazol-4-yl)acetamido)-2,2-dimethyl-4-oxoazetidin-1-yl sulfate formate]	6.25 µM	3.125 µM	3.125 µM	0.3906 µM	–	–	–	–
C[n+]1cc(-c2ccc3c(c2)CC[C@H]([C@](C)(O/N=C(\C(=O)N[C@@H]2C(=O)N(OS(=O)(=O)[O-])C2(C)C)c2csc(N)n2)C(=O)O)O3)cnc1NC[C@H](O)CN.O=CO [Example 17, (S)-3-((Z)-2-(2-aminothiazol-4-yl)-2-(((S)-1-((R)-6-(2-(((R)-3-ammonio-2-hydroxy-propyl)amino)-1-methyl-pyrimidin-1-ium-5-yl)chroman-2-yl)-1-carboxy-ethoxy)imino)acetamido)-2,2-dimethyl-4-oxoazetidin-1-yl sulfate formate]	6.25 µM	6.25 µM	12.5 µM	0.3906 µM	–	–	–	–
C[n+]1cc(-c2ccc3c(c2)CC[C@H]([C@](C)(O/N=C(\C(=O)N[C@@H]2C(=O)N(OS(=O)(=O)[O-])C2(C)C)c2csc(N)n2)C(=O)O)O3)cnc1NC[C@@H](O)CN.O=CO [Example 18, (S)-3-((Z)-2-(2-aminothiazol-4-yl)-2-(((S)-1-((R)-6-(2-(((S)-3-ammonio-2-hydroxy-propyl)amino)-1-methylpyrimidin-1-ium-5-yl)chroman-2-yl)-1-carboxy-ethoxy)imino)acetamido)-2,2-dimethyl-4-oxoazetidin-1-yl sulfate formate]	6.25 µM	6.25 µM	3.125 µM	0.3906 µM	–	–	–	–
CC1(C)[C@H](NC(=O)/C(=N\O[C@](C)(C(=O)O)[C@H]2CCc3cc(-c4cnc(NC[C@H](O)CN)[n+](CC5CNC5)c4)ccc3O2)c2csc(N)n2)C(=O)N1OS(=O)(=O)[O-].O=CO [Example 19, (S)-3-((Z)-2-(((S)-1-((R)-6-(2-(((R)-3-amino-2-hydroxy-propyl)amino)-1-(azetidin-1-ium-3-ylmethyl)pyrimidin-1-ium-5-yl)chroman-2-yl)-1-carboxyethoxy)imino)-2-(2-aminothiazol-4-yl)acetamido)-2,2-dimethyl-4-oxoazetidin-1-yl sulfate formate]	6.25 µM	12.5 µM	12.5 µM	0.7813 µM	–	–	–	–
CC1(C)[C@H](NC(=O)/C(=N\O[C@](C)(C(=O)O)[C@H]2CCc3cc(-c4cnc(NC[C@@H](O)CN)[n+](CC5CNC5)c4)ccc3O2)c2csc(N)n2)C(=O)N1OS(=O)(=O)[O-].O=CO [Example 20, (S)-3-((Z)-2-(((S)-1-((R)-6-(2-(((S)-3-amino-2-hydroxy-propyl)amino)-1-(azetidin-1-ium-3-ylmethyl)pyrimidin-1-ium-5-yl)chroman-2-yl)-1-carboxyethoxy)imino)-2-(2-aminothiazol-4-yl)acetamido)-2,2-dimethyl-4-oxoazetidin-1-yl sulfate formate]	6.25 µM	6.25 µM	6.25 µM	0.3906 µM	–	–	–	–
CC1(C)[C@H](NC(=O)/C(=N\O[C@](C)(C(=O)O)[C@H]2CCc3cc(-c4ccc(NCCCN)[n+](CCCN)c4)ccc3O2)c2csc(N)n2)C(=O)N1OS(=O)(=O)[O-].O=CO [Example 21, (S)-3-((Z)-2-(((S)-1-((R)-6-(1-(3-aminopropyl)-6-((3-ammoniopropyl)amino)pyridin-1-ium-3-yl)chroman-2-yl)-1-carboxyethoxy)imino)-2-(2-aminothiazol-4-yl)acetamido)-2,2-dimethyl-4-oxoazetidin-1-yl sulfate formate]	6.25 µM	12.5 µM	3.125 µM	0.3906 µM	–	–	–	–
CC1(C)[C@H](NC(=O)/C(=N\O[C@](C)(C(=O)O)[C@H]2CCc3cc(-c4ccc(NCCCN)[n+](CC5CNC5)c4)ccc3O2)c2csc(N)n2)C(=O)N1OS(=O)(=O)[O-].O=CO [Example 22, (S)-3-((Z)-2-(((S)-1-((R)-6-(6-((3-aminopropyl)amino)-1-(azetidin-1-ium-3-ylmethyl)pyridin-1-ium-3-yl)chroman-2-yl)-1-carboxyethoxy)imino)-2-(2-aminothiazol-4-yl)acetamido)-2,2-dimethyl-4-oxoazetidin-1-yl sulfate formate]	12.5 µM	25 µM	12.5 µM	0.7813 µM	–	–	–	–
C[n+]1cc(-c2ccc3c(c2)CC[C@H]([C@](C)(O/N=C(\C(=O)N[C@@H]2C(=O)N(OS(=O)(=O)[O-])C2(C)C)c2csc(N)n2)C(=O)O)O3)ccc1NC(CN)CN.O=CO [Example 23A, (3S)-3-((Z)-2-(((1S)-1-((2R)-6-(6-((1-amino-3-ammoniopropan-2-yl)amino)-1-methylpyridin-1-ium-3-yl)chroman-2-yl)-1-carboxyethoxy)imino)-2-(2-aminothiazol-4-yl)acetamido)-2,2-dimethyl-4-oxoazetidin-1-yl sulfate formate]	–	–	–	–	12.5 µM	3.125 µM	6.25 µM	0.3906 µM
C[n+]1cc(-c2ccc3c(c2)CC[C@H]([C@](C)(O/N=C(\C(=O)N[C@@H]2C(=O)N(OS(=O)(=O)[O-])C2(C)C)c2csc(N)n2)C(=O)O)O3)ccc1NC(CN)CN.O=CO [Example 23B, (3S)-3-((Z)-2-(((1S)-1-((2R)-6-(6-((1-amino-3-ammoniopropan-2-yl)amino)-1-methylpyridin-1-ium-3-yl)chroman-2-yl)-1-carboxyethoxy)imino)-2-(2-aminothiazol-4-yl)acetamido)-2,2-dimethyl-4-oxoazetidin-1-yl sulfate formate]	–	–	–	–	100 µM	25 µM	12.5 µM	3.125 µM
C[n+]1cc(-c2ccc3c(c2)CC[C@H]([C@](C)(O/N=C(\C(=O)N[C@@H]2C(=O)N(OS(=O)(=O)[O-])C2(C)C)c2csc(N)n2)C(=O)O)O3)cnc1NC(CN)CN.O=CO [Example 24, (3S)-3-((Z)-2-(((1S)-1-((2R)-6-(2-((1-amino-3-ammonio-propan-2-yl)amino)-1-methyl-pyrimidin-1-ium-5-yl)chroman-2-yl)-1-carboxyethoxy)imino)-2-(2-aminothiazol-4-yl)acetamido)-2,2-dimethyl-4-oxoazetidin-1-yl sulfate formate]	3.125 µM	3.125 µM	1.563 µM	0.3906 µM	–	–	–	–
CC1(C)[C@H](NC(=O)/C(=N\O[C@](C)(C(=O)O)[C@H]2CCc3cc(C4CN=C(NCCCN)NC4)ccc3O2)c2csc(N)n2)C(=O)N1OS(=O)(=O)O (stereo partly drawn) [Example 27, (2S)-2-((2R)-6-(2-((3-aminopropyl)amino)-1,4,5,6-tetrahydropyrimidin-5-yl)chroman-2-yl)-2-(((Z)-(1-(2-aminothiazol-4-yl)-2-(((S)-22-dimethyl-4-oxo-1-(sulfooxy)azetidin-3-yl)amino)-2-oxoethylidene)amino)oxy)propanoic Acid]	12.5 µM	6.25 µM	12.5 µM	0.7813 µM	–	–	–	–
CC1(C)[C@H](NC(=O)/C(=N/O[C@](C)(C(=O)O)[C@H]2CCc3cc(C4CN=C(NC[C@H](O)CN)NC4)ccc3O2)c2csc(N)n2)C(=O)N1OS(=O)(=O)O.O=CO (stereo partly drawn) [Example 28, 2-(((R)-3-amino-2-hydroxypropyl)amino)-5-((R)-2-((S)-1-((((E)-1-(2-aminothiazol-4-yl)-2-(((S)-2,2-dimethyl-4-oxo-1-(sulfooxy)azetidin-3-yl)amino)-2-oxoethylidene)amino)oxy)-1-carboxyethyl)chroman-6-yl)-3,4,5,6-tetrahydropyrimidin-1-ium formate]	6.25 µM	3.13 µM	3.13 µM	0.2 µM	–	–	–	–
